PMC7404270, “Biological Activities of Cyclic and Acyclic B-Type Laxaphycins in SH-SY5Y Human Neuroblastoma Cells” (Marine Drugs, 2020)
Starred links: 1 amine or outer side, 2 acyl side, 3 side chain; linkers in the order of their positions; H or OH if unused. Non-standard residues stand in square brackets, D forms with d. Residues, ends and D or L forms follow the SMILES beside them. dβ3hGly(nHeptyl) = CCCCCCC[C@H](CC(=O)[*:2])N[*:1]; dAsn(3R-OH) = NC(=O)[C@H](O)[C@@H](N)C(=O)O; dLeu(3S-OH) = CC(C)[C@H](O)[C@@H](N)C(=O)O; Hyp = O=C(O)[C@@H]1C[C@@H](O)CN1; NMeI = CC[C@H](C)[C@H](NC)C(=O)O

Key:
[1] = test system: SH-SY5Y human neuroblastoma cells; test: Annexin V-FITC / propidium iodide flow cytometry; format: cell-based; details: 24 h, 1 at 0.3 µM; for Cell survival (flow cytometry): 2 at 0.15 µM (MTT IC50 values); for Apoptotic cells (early and late, Annexin V positive): 2 at 0.15 µM, STS at 0.01 µM, percentage of total cells, mean ± SEM of three experiments
Protocol: The Annexin V-FITC Apoptosis Detection Kit was used to determine the cell death produced by compounds as previously described. SH-SY5Y cells were seeded in 12-well plates at 1 × 10^6 per well and incubated for 24 h with laxaphycins. Then, cells were washed with PBS and resuspended in Annexin binding buffer containing Annexin V-FITC and PI. Cells were incubated for 15 min at room temperature, resuspended in PBS and filtered. The fluorescence was determined by flow cytometry using the ImageStreamMKII (Amnis Corporation, Luminex Corp, Austin, TX, USA). 10,000 events were analyzed with IDEAS Application 6.0 software (Amnis Corporation, Luminex Corp, Austin, TX, USA). STS (Sigma Aldrich) at 0.01 µM was used as control in this assay.

[2] = test system: SH-SY5Y human neuroblastoma cells; test: LDH cytotoxicity assay (cell viability); format: cell-based; details: 24 h, 0.001–10 µM
Protocol: (§1) SH-SY5Y human neuroblastoma cell line was obtained from American Type Culture Collection (ATCC), number CRL2266. Cells were cultured in Dulbecco´s modified Eagle´s medium: Nutrient Mix F-12 (DMEM/F-12) with 10% fetal bovine serum (FBS), 1% glutamax, 100 U/mL penicillin and 100 µg/mL streptomycin. Cells were maintained at 37 °C in a humidified atmosphere of 5% CO2 and 95% air and dissociated weekly using 0.05% trypsin/EDTA. All the reagents were obtained from Thermo Fischer Scientific.
Cell viability was assessed with the LDH test. Cells were seeded in 96-well plates and exposed to different compound concentrations (0.001–10 µM). Cells were incubated with compounds at 37 °C in humidified 5% CO2/95% air atmosphere for 24 h. Quillaja bark saponin was used as cellular death control. Then, cell medium was collected and LDH release was evaluated. Pierce^TM LDH-Cytotoxicity Assay Kit (Thermo Fisher Scientific) was used for LDH determination. Absorbance was measured at 490 nm to determine LDH release to the medium. Experiments were carried out in triplicate at least three independent times.

[3] = test system: drug-sensitive and multidrug-resistant tumor cell lines; design: method as in PMID 17323939; details: previous works; read-out: IC50, toxicity towards drug-sensitive and multidrug-resistant tumor cell lines; cited from earlier work
Description: (§2) Moreover, this study is the first description of the effects on mitochondria and autophagy produced by acyclic B-type laxaphycins, and also confirms that the toxic effects of cyclic laxaphycins B are mediated by an apoptotic process. […] Our results in neuroblastoma cells are in ag ...

mTOR = test: Western blot, mTOR activation (phosphorylated/total); format: cell-based, human; details: SH-SY5Y cells, 24 h; Rap 0.1 µM
Protocol: (§3) SH-SY5Y cells were seeded in 12-well plates and treated with laxaphycins for 24 h. Next, cells were washed with PBS and lysis buffer (50mM Tris HCl, 150 mM NaCl, 1mM EDTA and 1% Triton x-100, supplemented with a complete phosphatase/protease inhibitor cocktail) was added to each well. Cells were scrapped, sonicated and centrifuged at 13,000 rpm at 4 °C for 20 min.
(§4) In both cases, the supernatant was collected as the cytosolic fraction and quantified with the Bradford method. Samples containing 15 µg were used for electrophoresis, resolved in 4–20% sodium dodecyl sulphate polyacrylamide gel (Biorad, Madrid, Spain). Proteins were transferred to PVDF membranes (Merck Millipore) with a Trans-Blot® semi-dry transfer cell (Biorad). Membrane blocking and antibody incubation was performed in Snap i.d. system (Merck Millipore). Protein bands were detected with Supersignal West Pico Luminiscent Substrate and Supersignal West Femto Maximum Sensitivity Substrate (Thermo Fisher Scientific). Chemiluminiscence was determined with Diversity GeneSnap system and software (Syngene). LC3 II/I was detected with the primary antibody anti-LC3 II/I (1:1000, Abcam), the primary antibody anti-pmTOR (Ser2448) (1:1000, Merck Millipore) was used to recognize phospho-mTOR and the total levels of the kinase were determined with anti-mTOR antibody (1:10000, Abcam), beclin-1 was detected with anti-beclin-1 primary antibody (1:1000, Merck Millipore), p62 was quantified with anti-p62 antibody (1:1000, Merck Millipore), anti-phospho-p70 S6 kinase (Thr389) (1:1000, Merck Millipore) was used to detect phospho- p70 and the total levels were quantified using anti-p70 S6 kinase antibody (1:1000, Merck Millipore), anti-phospho-AMPK (Thr172) (1:500, Merck Millipore) was used to recognize the phosphorylated state of the kinase, and the total expression of the enzyme was detected with anti-AMPK antibody (1:500, Merck Millipore). Protein levels were normalized using β-Actin (1:20,000, Millipore). Baf A1 (0.001 µM), Rap (0.1 µM) and Comp C (1 µM) were used as controls for autophagic flux measurements. […]

caspase 3 = test: Caspase 3 activity in cell lysates (EnzCheck kit); format: cell-based, human; details: SH-SY5Y cells, 24 h; 1 at 0.3 µM, 2 at 0.15 µM
Protocol: The detection of caspase 3 activity was carried out with the EnzCheck® Caspase-3 Assay Kit. Neuroblastoma cells were cultured in 12-well plates at 1 × 10^6 cells per well and treated with compounds. After 24 h, cells were lysed and an aliquot was collected to quantify protein concentration by the Bradford method. Then, the assay was performed following manufacturer’s instructions. Briefly, 50 µL of each sample were mixed with equal volume of Z-DEVD-AMC substrate and incubated for 30 min at room temperature. Then, fluorescence at 342 nm excitation and 441 nm emission was measured. Caspase 3 activity data were corrected by protein concentration values. STS (0.01 µM) was used as positive control.

[4] = test system: SH-SY5Y human neuroblastoma cells; test: MTT cell metabolic activity assay; format: cell-based; details: 24 h, 0.001–10 µM, absorbance 595 nm, three experiments in triplicate
Protocol: as §1
The effect of laxaphycins on cell metabolic activity was evaluated by MTT (3-(4, 5-dimethyl thiazol-2-yl)-2, 5-diphenyl tetrazolium bromide) assay. SH-SY5Y cells were cultured in 96-well plates and treated with compounds at concentrations ranging from 0.001 to 10 µM for 24 h. Next, cells were rinsed three times and incubated for 1 h with MTT (500 µg/mL) dissolved in saline buffer. MTT excess was washed and cells were disaggregated with 5% sodium dodecyl sulfate. Absorbance of the colored formazan salt was measured at 595 nm in a spectrophotometer plate reader. Cell death control signal was subtracted from the other data.

p70 S6 kinase = test: Western blot, p70 S6 kinase activation (phosphorylated/total); format: cell-based, human; details: SH-SY5Y cells, 24 h; one range given for the three compounds together
Protocol: as §3, §4

[5] = test system: panel of cancer cell lines; details: read-out: IC50, cytotoxic effects against a panel of cancer cell lines; previous works; cited from earlier work
Description: as §2

Row | Structure (SMILES) | Cell survival (flow cytometry) [1] | Apoptotic cells (early and late, Annexin V positive) [1] | Cytotoxicity / cell viability (LDH test), in words [2] | IC50 [3] | mTOR activation (phospho/total), in words (mTOR) | Increase in caspase 3 activity (caspase 3) | IC50 [4] | p70 S6 phosphorylation (p70 S6 kinase) | IC50 [5]
1 | CCCCCCC[C@@H]1CC(=O)N[C@@H](C(C)C)C(=O)N[C@H]([C@@H](O)C(C)C)C(=O)N[C@@H](C)C(=O)N[C@H]([C@@H](O)C(C)C)C(=O)N[C@@H](CCC(N)=O)C(=O)N(C)[C@@H]([C@@H](C)CC)C(=O)N[C@H]([C@@H](O)C(N)=O)C(=O)N[C@@H]([C@@H](C)O)C(=O)N2C[C@H](O)C[C@H]2C(=O)N[C@H](CC(C)C)C(=O)N[C@@H]([C@@H](C)O)C(=O)N1 [compound 2, laxaphycin B3] (cyclo([dβ3hGly(nHeptyl)]V[dLeu(3S-OH)]A[dLeu(3S-OH)]Q[NMeI][dAsn(3R-OH)]T[Hyp][dL]T)) | around 60 % of control cells | 46.4% ± 4.8% | cytotoxic to neuroblastoma cells | ~1000 nM | did not affect to the protein expression | about 20 % of control cells | 150 nM | 53.5%–78.6% | –
2 | CCCCCCC[C@@H]1CC(=O)N[C@@H](C(C)C)C(=O)N[C@H]([C@@H](O)C(C)C)C(=O)N[C@@H](C)C(=O)N[C@H]([C@@H](O)C(C)C)C(=O)N[C@@H](CCC(N)=O)C(=O)N(C)[C@@H]([C@@H](C)CC)C(=O)N[C@H]([C@@H](O)C(N)=O)C(=O)N[C@@H]([C@@H](C)O)C(=O)N2CCC[C@H]2C(=O)N[C@H](CC(C)C)C(=O)N[C@@H]([C@@H](C)O)C(=O)N1 [compound 1, laxaphycin B] (cyclo([dβ3hGly(nHeptyl)]V[dLeu(3S-OH)]A[dLeu(3S-OH)]Q[NMeI][dAsn(3R-OH)]TP[dL]T)) | around 60 % of control cells | 50.4% ± 4.8% | cytotoxic to neuroblastoma cells | ~1000 nM | did not affect to the protein expression | about 20 % of control cells | 300 nM | – | < 2000 nM
